According to publication PMC12156367, “Synthesis and Biological Evaluation of Seco-Coumarin/Furoxan Hybrids as Potent Anti-Tumor Agents to Overcome Multidrug Resistance via Multiple Mechanisms” (Molecules, 2025):

Key:
[1] = Solubility experiment (HPLC) in water/acetonitrile; type: physicochemical; conditions: in water/acetonitrile (table title)
Procedure: Wavelength: 254 nm; flow rate: 1.0 mL/min; column temperature: 25 °C. Mobile phase: Phase A: water, Phase B: acetonitrile (Table 5).
Compounds were dissolved in chromatographic-grade acetonitrile and diluted to concentrations of 200, 100, 50, 25, 12.5, and 6.25 µg/mL. A standard curve was plotted using the peak area under the curve (AUC) versus concentration. […] The supernatant was filtered through an ultrafiltration membrane and then subjected to HPLC analysis. The solubility of the target compound was determined by substituting the AUC of the test compound into the standard curve. Each measurement was performed in triplicate.

[2] = test system: MCF-7/ADR (doxorubicin-resistant human breast cancer cell line); assay: In vitro antiproliferative assay (MTT, 48 h), MCF-7/ADR; type: cell-based; conditions: collateral sensitivity
Description: The MDA-MB-468 cell line was procured from the Cell Bank of the Chinese Academy of Sciences. The MCF-7, MCF-7/ADR, MCF-10A, and MDA-MB-231 cell lines were kindly provided by Professor Xianyi Sha (Fudan University, Shanghai, China). The HUVEC cells were kindly provided by Associate Professor Hulie Zeng (Fudan University, Shanghai, China). The MDA-MB-468, MDA-MB-231, MCF-7, MCF-10A, and HUVEC cells were cultivated in DMEM (Service Biotechnology, China) supplemented with 10% FBS (Capricorn Scientific, Germany) and 1% penicillin-streptomycin (Meilunbio, Dalian, China). For the MCF-7/ADR cells, they were cultured in RPMI-1640 (Service Biotechnology, Wuhan, China), containing 10% FBS and 1% penicillin-streptomycin. Additionally, 500 ng/mL of doxorubicin (Sigma-Aldrich, Saint Louis, MO, USA) was incorporated into the RPMI-1640 culture medium to keep drug resistance. All cell lines were cultured in a humidified incubator at 37 °C with a 5% CO2 atmosphere.
Following harvest during logarithmic growth, cells were plated in 96-well culture plates at an initial density of 5000 cells per well. Incubate the plate overnight at 37 °C to allow the cells to adhere. Following the overnight incubation, introduce the compound at the predetermined concentration into each well, and then return the plate to the incubator for an additional 48 h culture period. After the 48 h treatment, carefully aspirate the drug-containing medium from each well. Subsequently, add 150 μL of 0.5 mg/mL MTT (Beyotime, China) solution to each well. Protect the plate from light and incubate it at 37 °C for 4 h to allow the formation of formazan crystals. Finally, add 150 μL of DMSO (Sinopharm, China) to each well and gently mix to ensure complete dissolution of the formazan crystals. The OD value at 570nm was measured using a microplate reader (Thermo Fisher, Waltham, MA, USA). Cell proliferation inhibition was determined using the following formula:Inhibition (%) = [(ODDMSO − ODcompd.)/(ODDMSO − ODblank)] × 100
GraphPad Prism software 9 was used to calculate the IC50 values. The specific calculation process is as follows: Firstly, we input the experimental data into Prism. The data include the concentrations of the experimental compounds and the corresponding biological response values. For instance, in the cell experiment, we recorded the cell viability values at different drug concentrations. Subsequently, we select the option of “Dose–Response–Nonlinear Regression” in the “Analyze” menu for curve fitting. Generally speaking, we use the model of “[Inhibitor] vs. normalized response—Variable slope”. The Prism software fits the data through the nonlinear least squares method and finds the parameter values that can minimize the difference between the model’s predicted values and the actual data. After completing the curve fitting, the software will directly provide the estimated values and confidence intervals of the IC50 value and other relevant parameters. Meanwhile, it will also offer goodness-of-fit indices, such as the correlation coefficient, to evaluate the quality of the fitting. Through the above method, we can accurately calculate the IC50 value, thereby assessing the intensity of the inhibitory or activating effect of the compound on the biological system.

With `COc1cc(OCCCOc2no[n+]([O-])c2S(=O)(=O)c2ccccc2)ccc1C(=O)C=Cc1ccccc1` [Compound 6a, 4-(3-(4-cinnamoyl-3-methoxyphenoxy)propoxy)-3-(phenylsulfonyl)-1,2,5-oxadiazole 2-oxide] the Solubility [1] was 60.8 ± 7.2% and the “Selectivity Ratio IC50(MCF-7)/ IC50(MCF-7/ADR)” value [2] was 432.6.

For `COc1cc(OCCCOc2no[n+]([O-])c2S(=O)(=O)c2ccccc2)ccc1C(=O)/C=C/c1ccc(F)cc1` [Compound 6b, (E)-4-(3-(4-(3-(4-fluorophenyl)acryloyl)-3-methoxyphenoxy)propoxy)-3-(phenylsulfonyl)-1,2,5-oxadiazole 2-oxide], the Solubility [1] was 45.8 ± 3.4% and the “Selectivity Ratio IC50(MCF-7)/ IC50(MCF-7/ADR)” value [2] was 286.6.

For `COc1ccc(/C=C/C(=O)c2ccc(OCCOc3no[n+]([O-])c3S(=O)(=O)c3ccccc3)cc2OC)cc1` [Compound 6c, (E)-4-(2-(3-methoxy-4-(3-(4-methoxyphenyl)acryloyl)phenoxy)ethoxy)-3-(phenylsulfonyl)-1,2,5-oxadiazole 2-oxide], the Solubility [1] was 37.7 ± 5.2% and the “Selectivity Ratio IC50(MCF-7)/ IC50(MCF-7/ADR)” value [2] was 44.2.

With `COc1cc(OCCOc2no[n+]([O-])c2S(=O)(=O)c2ccccc2)ccc1C(=O)/C=C/c1ccc(C#N)cc1` [Compound 6e, (E)-4-(2-(4-(3-(4-cyanophenyl)acryloyl)-3-methoxyphenoxy)ethoxy)-3-(phenylsulfonyl)-1,2,5-oxadiazole 2-oxide] the Solubility [1] was 21.2 ± 3.3% and the “Selectivity Ratio IC50(MCF-7)/ IC50(MCF-7/ADR)” value [2] was 328.3.

With `COc1cc(OCCCOc2no[n+]([O-])c2S(=O)(=O)c2ccccc2)ccc1C(=O)/C=C/c1ccc(C#N)cc1` [Compound 6f, (E)-4-(3-(4-(3-(4-cyanophenyl)acryloyl)-3-methoxyphenoxy)propoxy)-3-(phenylsulfonyl)-1,2,5-oxadiazole 2-oxide] the Solubility [1] was 67.2 ± 6.1% and the “Selectivity Ratio IC50(MCF-7)/ IC50(MCF-7/ADR)” value [2] was 212.9.

With `COc1cc(OCCOc2no[n+]([O-])c2S(=O)(=O)c2ccccc2)ccc1C(=O)CCc1ccccc1` [Compound 9a, 4-(2-(3-methoxy-4-(3-phenylpropanoyl)phenoxy)ethoxy)-3-(phenylsulfonyl)-1,2,5-oxadiazole 2-oxide] the Solubility [1] was 23.5 ± 4.1% and the “Selectivity Ratio IC50(MCF-7)/ IC50(MCF-7/ADR)” value [2] was 1716.9.

In the case of `COc1cc(OCCCOc2no[n+]([O-])c2S(=O)(=O)c2ccccc2)ccc1C(=O)CCc1ccccc1` [Compound 9b, 4-(3-(3-methoxy-4-(3-phenylpropanoyl)phenoxy)propoxy)-3-(phenylsulfonyl)-1,2,5-oxadiazole 2-oxide], the Solubility [1] is reported as 19.4 ± 3.1% and the “Selectivity Ratio IC50(MCF-7)/ IC50(MCF-7/ADR)” value [2] is reported as 1152.6.

For `COc1cc(OCCOc2no[n+]([O-])c2S(=O)(=O)c2ccccc2)ccc1C(=O)CCc1ccc(F)cc1` [Compound 9c, 4-(2-(4-(3-(4-fluorophenyl)propanoyl)-3-methoxyphenoxy)ethoxy)-3-(phenylsulfonyl)-1,2,5-oxadiazole 2-oxide], the Solubility [1] was 40.8 ± 8.2% and the “Selectivity Ratio IC50(MCF-7)/ IC50(MCF-7/ADR)” value [2] was 137.1.

In the case of `COc1cc(OCCCOc2no[n+]([O-])c2S(=O)(=O)c2ccccc2)ccc1C(=O)CCc1ccc(F)cc1` [Compound 9d, 4-(3-(4-(3-(4-fluorophenyl)propanoyl)-3-methoxyphenoxy)propoxy)-3-(phenylsulfonyl)-1,2,5-oxadiazole 2-oxide], the Solubility [1] is reported as 117 ± 10.8% and the “Selectivity Ratio IC50(MCF-7)/ IC50(MCF-7/ADR)” value [2] is reported as 1394.2.

In the case of `COc1ccc(CCC(=O)c2ccc(OCCCOc3no[n+]([O-])c3S(=O)(=O)c3ccccc3)cc2OC)cc1` [Compound 9f, 4-(3-(3-methoxy-4-(3-(4-methoxyphenyl)propanoyl)phenoxy)propoxy)-3-(phenylsulfonyl)-1,2,5-oxadiazole 2-oxide], the Solubility [1] is reported as 125 ± 9.2% and the “Selectivity Ratio IC50(MCF-7)/ IC50(MCF-7/ADR)” value [2] is reported as 943.2.

For `COc1cccc2c1C(=O)c1c(O)c3c(c(O)c1C2=O)C[C@@](O)(C(=O)CO)C[C@@H]3O[C@H]1C[C@H](N)[C@H](O)[C@H](C)O1` [doxorubicin, reference compound], the “Selectivity Ratio IC50(MCF-7)/ IC50(MCF-7/ADR)” value [2] was 0.008.
